According to patent US3956491A, “Medicine containing the main sapogenin of helleborus” (priority 1974, dated 1976):

How the values were obtained:
[1] = tested on: histamine ulcers of guinea pigs; assay: histamine type of ulcer of guinea pigs (method of Eagleton and Watt); format: in vivo; conditions: oral, histamine diphosphate 5 mg/kg
Experimental: The testing of the histamine type of ulcer of guinea pigs is carried out for example by the method of Eagleton and Watt (Peptic Ulcer, Pfeiffer, Munksgaard, Copenhagen, printed in Denmark by Aarhuus, Stiftsbogtrykkerie A/S Arhus ISBN 8716003225 pages 34-44). The entire disclosure of the Eagleton and Watt article is hereby incorporated by reference and relied upon. There were employed predominantly male guinea pigs weighing 300 to 400 grams and the test substance was applied orally after 24 hour feeding intervals and 12 hours deprivation of drinking water. One hour after giving the substance the guinea pigs were given the injection of histamine diphosphate (histamine acid phosphate) at a dosage of 5 mg/kg (the histamine diphosphate was employed in aqueous solution at a concentration of 1 mg histamine disphosphate/ml). The histamine diphosphate was injected introperitoneally. Three hours after the injection of histamine the animals were killed with CO2. The stomachs were resected and cut open along the small curvature and turned upside down over the examination finger. The ulcers were evaluated according to Munchow (Arzneimittelforschung Vol. 4 (1954 pages 341-344).
The calculated control index must in the order of magnitude between 5 and 15.

[2] = ulcer healing / antiulcer activity, general statement (test not specified); format: in vivo
[3] = tested on: indometacin ulcer of rats; assay: indometacin ulcer of rats (method of John and Adrian modified by Wilhelmi); format: in vivo, Albino rats of the strain SIV 50; conditions: for ULCER PROTECTING EFFECT: indometacin 20 mg/kg, 24 h
Experimental: These tests were carried out according to the method of John and Adrian modified by Wilhelmi on the indometacin ulcer of rats (see Arzeimittelforschung Vol. 19 (1969) pages 45 et seq.).
The determination is carried out in the following manner.
Albino rats of the strain SIV 50 (S. Ivanovas, Kisslegg/allgau) having an initial weight of 250 to 300 grams were held in controlled temperature rooms at 20° to 22°C. in wire cages (Ebeco, Type 3 double width) on a standard diet (Altromin). After 48 hour feeding intervals the animals received 20 mg/kg rat of indometacin in 1.5% tragacanth (1 ml tragacanth solution per 100 grams of rat) applied introgastrally.
One hour after giving the indometacin there was dispensed orally to the animals the test substance. The rats remain otherwise fasting (water ad libitum)
Twenty four hours after giving the indometacin the animals were killed with […]. The stomach was resected, opened along the great curvature and washed under flowing water.
The ulcerative changes appear as dark, point or stria shaped spots on the mucosa. The evaluation was done according to the method of Munchow Arneimittedforschung Vol. 4 (1954) pages 341-344.

[4] = central nervous system influencing activity
[5] = acute toxicity in the mouse (method of Miller and Tainter); conditions: in vivo, oral application
Experimental: The acute toxicity of the compound of the invention in the mouse (expressed by LD50 mg/kg; method of Miller and Tainter; Proc. Soc. Exper. Biol. a. Med. Vol 57 (1944) pages 261 et seq.) on oral application, for example is above 6000 mg/kg.

## C=C1CC[C@@]2(OC1)O[C@H]1C[C@H]3[C@@H]4CC=C5C[C@@H](O)C[C@@H](O)[C@]5(C)[C@H]4[C@H](O)C[C@]3(C)[C@H]1[C@@H]2C [Helleborus main sapogenin, spiro-5,25(27)-diene-1β,3β,11α-triol]
[1]
  anti-ulcer activity: good anti-ulcer activity
Muscle relaxing activity
  muscle relaxing activity: muscle relaxing
[2]; comparison with the known medicine Biogastrone
  antiulcer activity compared with Biogastrone: comparable to the activity of the known medicine Biogastrone
[2]; in vivo
  ulcer healing activity: has an ulcer healing activity
[3]; daily dosage 50 mg/kg, oral
  ULCER PROTECTING EFFECT: 58%
[3]; daily dosage 100 mg/kg, oral
  ULCER PROTECTING EFFECT: 78%
[3]; daily dosage 200 mg/kg, oral
  ULCER PROTECTING EFFECT: 80%
[3]; indometacin ulcers of rats, oral
  anti-ulcer activity: good anti-ulcer activity
[3]; po, orally, above mentioned animal experiments (indometacin ulcers of rats, histamine ulcers of guinea pigs), read-out: lowest effective dosage
  minimal effective dose: 50 mg/kg
[4]
  central nervous system influencing activity: central nervous system influencing activity has been established
[5]
  LD50: > 6000 mg/kg
